Assay results from article PMC5845353, “The selective cathepsin K inhibitor MIV-711 attenuates joint pathology in experimental animal models of osteoarthritis” (Journal of Translational Medicine, 2018).

System: rabbits subjected to anterior cruciate ligament transection (ACLT)
Test: Rabbit ACLT study, histomorphometry of bone, cartilage and osteophytes
Format: in vivo
Method: The femora and tibias were decalcified, embedded in paraffin, sectioned at 5-7 µm at two different levels separated by approximately 2 mm, and stained with safranin O and toluidine blue.
Both tibial plateaus and femoral condyles (i.e. four joint compartments) were also subjected to histomorphometric analysis of cartilage, subchondral bone, cancellous bone, and osteophytes. The measurements were made using OsteoMeasureXP version 3.3.0.2 as follows:
Uncalcified cartilage area was measured by tracing the articular surface (cartilage perimeter) and bone or calcified cartilage/uncalcified cartilage interface (cartilage boundary).
Cartilage width was measured by point to point measurement at intersections between a sampling grid with approximately 0.5 mm spacing and the cartilage boundary. The intercepts measured were orthogonal to the cartilage boundary and ended at the cartilage perimeter. At intersections where the cartilage width was zero due to erosion, a value of zero was recorded.
Subchondral bone width was measured by point to point measurement at intersections between a sampling grid with approximately 0.5 mm spacing and the cartilage boundary. The intercepts measured were orthogonal to the cartilage boundary and ended at the first marrow cavity encountered that had at least one dimension approximately equivalent to nearby trabecular thickness.
Osteophyte area was measured for abaxial osteophytes. On the femur, osteophytes associated with the condyles but not with the trochlear grooves were measured.
Bone area (including osteoid) and perimeter were measured in a 3.8 X 1.5 mm ROI centered approximately 1 mm below the bone/cartilage interface. This ROI was intended to be equivalent to the subchondral cancellous bone VOI measured by microCT. Bone volume (BV/TV), trabecular thickness (Tb.Th), trabecular number (Tb.N) and trabecular separation (Tb.Sp) were derived from these measurements using standard formulae.
Slides were evaluated in animal ID order, i.e. in random order with respect to treatment, so that the measurer was effectively blinded to treatment assignment.
Analysis was performed on all four condyles at two levels (Level 1 and 2) for each condyle:
Group 1) sham + vehicle; Group 2) ACLT + vehicle; Group 3) ACLT + MIV-711, 30 µmol/kg (low dose) and Group 4) ACLT + MIV-711, 100 µmol/kg (high dose).

[1] = Level 1 LFC, Group 3, ACLT + MIV-711 30 µmol/kg
[2] = Level 1 LFC, Group 4, ACLT + MIV-711 100 µmol/kg
[3] = Level 1 LTP, Group 3, ACLT + MIV-711 30 µmol/kg
[4] = Level 1 LTP, Group 4, ACLT + MIV-711 100 µmol/kg
[5] = Level 1 MFC, Group 3, ACLT + MIV-711 30 µmol/kg
[6] = Level 1 MFC, Group 4, ACLT + MIV-711 100 µmol/kg

C#C[C@@H]1CN(C(=O)[C@H](CC(C)C)NC(=O)c2ccc(-c3nc(N4CCN(C)CC4)sc3F)cc2)[C@@H]2C(=O)CO[C@H]12 [MIV-711]
effect on osteophyte parameters at the microscopic level (ACLT rabbits, 30 and 100 µmol/kg): did not affect | Cart.Bd, Mean (Level 1, MFC, Group 3): 8.37 mm | Cart.Bd, Median (Level 1, MFC, Group 3): 8.42 mm | Cart.Pm, Mean (Level 1, MFC, Group 3): 9.31 mm | Cart.Pm, Median (Level 1, MFC, Group 3): 9.55 mm | Cart.Wi, Mean (Level 1, MFC, Group 3): 264.49 µm | Cart.Wi, Median (Level 1, MFC, Group 3): 233.46 µm | SCB.Wi, Mean (Level 1, MFC, Group 3): 796.52 µm | SCB.Wi, Median (Level 1, MFC, Group 3): 695.73 µm | Cart.Bd, Mean (Level 1, MFC, Group 4): 8.94 mm | Cart.Bd, Median (Level 1, MFC, Group 4): 8.89 mm | Cart.Pm, Mean (Level 1, MFC, Group 4): 10.24 mm | Cart.Pm, Median (Level 1, MFC, Group 4): 10.20 mm | Cart.Wi, Mean (Level 1, MFC, Group 4): 323.96 µm | Cart.Wi, Median (Level 1, MFC, Group 4): 341.58 µm | SCB.Wi, Mean (Level 1, MFC, Group 4): 655.48 µm | SCB.Wi, Median (Level 1, MFC, Group 4): 627.36 µm | BV/TV, Mean (Level 1, MTP, Group 3): 37.43% | BV/TV, Median (Level 1, MTP, Group 3): 39.13% | Cart.Ar, Mean (Level 1, MTP, Group 3): 3.43 mm2 | Cart.Ar, Median (Level 1, MTP, Group 3): 3.15 mm2 | Cart.Bd, Mean (Level 1, MTP, Group 3): 5.74 mm | Cart.Bd, Median (Level 1, MTP, Group 3): 5.82 mm | Cart.Pm, Mean (Level 1, MTP, Group 3): 5.96 mm | Cart.Pm, Median (Level 1, MTP, Group 3): 5.73 mm | Cart.Wi, Mean (Level 1, MTP, Group 3): 627.75 µm | Cart.Wi, Median (Level 1, MTP, Group 3): 633.18 µm | Ophte.Ar, Mean (Level 1, MTP, Group 3): 7.76 mm2 | Ophte.Ar, Median (Level 1, MTP, Group 3): 7.61 mm2 | SCB.Wi, Mean (Level 1, MTP, Group 3): 718.50 µm | SCB.Wi, Median (Level 1, MTP, Group 3): 715.91 µm | Tb.N, Mean (Level 1, MTP, Group 3): 2.07 1/mm | Tb.N, Median (Level 1, MTP, Group 3): 1.97 1/mm | Tb.Sp, Mean (Level 1, MTP, Group 3): 306.15 µm | Tb.Sp, Median (Level 1, MTP, Group 3): 294.58 µm | Tb.Th, Mean (Level 1, MTP, Group 3): 182.44 µm | Tb.Th, Median (Level 1, MTP, Group 3): 174.84 µm | BV/TV, Mean (Level 1, MTP, Group 4): 35.92% | BV/TV, Median (Level 1, MTP, Group 4): 35.01% | Cart.Ar, Mean (Level 1, MTP, Group 4): 2.98 mm2 | Cart.Ar, Median (Level 1, MTP, Group 4): 3.00 mm2 | Cart.Bd, Mean (Level 1, MTP, Group 4): 5.22 mm | Cart.Bd, Median (Level 1, MTP, Group 4): 5.08 mm | Cart.Pm, Mean (Level 1, MTP, Group 4): 6.31 mm | Cart.Pm, Median (Level 1, MTP, Group 4): 5.70 mm | Cart.Wi, Mean (Level 1, MTP, Group 4): 618.52 µm | Cart.Wi, Median (Level 1, MTP, Group 4): 551.09 µm | Ophte.Ar, Mean (Level 1, MTP, Group 4): 9.09 mm2 | Ophte.Ar, Median (Level 1, MTP, Group 4): 7.85 mm2 | SCB.Wi, Mean (Level 1, MTP, Group 4): 839.92 µm | SCB.Wi, Median (Level 1, MTP, Group 4): 790.92 µm | Tb.N, Mean (Level 1, MTP, Group 4): 1.91 1/mm | Tb.N, Median (Level 1, MTP, Group 4): 1.80 1/mm | Tb.Sp, Mean (Level 1, MTP, Group 4): 346.56 µm | Tb.Sp, Median (Level 1, MTP, Group 4): 370.02 µm | Tb.Th, Mean (Level 1, MTP, Group 4): 190.56 µm | Tb.Th, Median (Level 1, MTP, Group 4): 188.86 µm | BV/TV, Mean [1]: 37.49% | BV/TV, Median [1]: 36.26% | Cart.Ar, Mean [1]: 2.52 mm2 | Cart.Ar, Median [1]: 2.55 mm2 | Cart.Bd, Mean [1]: 9.42 mm | Cart.Bd, Median [1]: 9.52 mm | Cart.Pm, Mean [1]: 10.23 mm | Cart.Pm, Median [1]: 10.40 mm | Cart.Wi, Mean [1]: 263.55 µm | Cart.Wi, Median [1]: 269.31 µm | Ophte.Ar, Mean [1]: 2.48 mm2 | Ophte.Ar, Median [1]: 1.89 mm2 | SCB.Wi, Mean [1]: 527.88 µm | SCB.Wi, Median [1]: 537.74 µm | Tb.N, Mean [1]: 2.87 1/mm | Tb.N, Median [1]: 2.78 1/mm | Tb.Sp, Mean [1]: 221.27 µm | Tb.Sp, Median [1]: 221.54 µm | Tb.Th, Mean [1]: 131.58 µm | Tb.Th, Median [1]: 132.19 µm | BV/TV, Mean [2]: 40.76% | BV/TV, Median [2]: 39.99% | Cart.Ar, Mean [2]: 3.28 mm2 | Cart.Ar, Median [2]: 3.33 mm2 | Cart.Bd, Mean [2]: 11.05 mm | Cart.Bd, Median [2]: 11.43 mm | Cart.Pm, Mean [2]: 11.98 mm | Cart.Pm, Median [2]: 12.38 mm | Cart.Wi, Mean [2]: 290.77 µm | Cart.Wi, Median [2]: 272.05 µm | Ophte.Ar, Mean [2]: 3.18 mm2 | Ophte.Ar, Median [2]: 1.06 mm2 | SCB.Wi, Mean [2]: 478.03 µm | SCB.Wi, Median [2]: 466.56 µm | Tb.N, Mean [2]: 2.76 1/mm | Tb.N, Median [2]: 2.79 1/mm | Tb.Sp, Mean [2]: 215.44 µm | Tb.Sp, Median [2]: 222.15 µm | Tb.Th, Mean [2]: 147.91 µm | Tb.Th, Median [2]: 146.15 µm | BV/TV, Mean [3]: 43.89% | BV/TV, Median [3]: 43.62% | Cart.Ar, Mean [3]: 2.03 mm2 | Cart.Ar, Median [3]: 2.02 mm2 | Cart.Bd, Mean [3]: 6.10 mm | Cart.Bd, Median [3]: 6.13 mm | Cart.Pm, Mean [3]: 6.15 mm | Cart.Pm, Median [3]: 6.13 mm | Cart.Wi, Mean [3]: 340.85 µm | Cart.Wi, Median [3]: 342.70 µm | Ophte.Ar, Mean [3]: 0.43 mm2 | Ophte.Ar, Median [3]: 0.58 mm2 | SCB.Wi, Mean [3]: 532.09 µm | SCB.Wi, Median [3]: 572.30 µm | Tb.N, Mean [3]: 2.79 1/mm | Tb.N, Median [3]: 2.77 1/mm | Tb.Sp, Mean [3]: 202.57 µm | Tb.Sp, Median [3]: 211.29 µm | Tb.Th, Mean [3]: 159.11 µm | Tb.Th, Median [3]: 141.92 µm | BV/TV, Mean [4]: 43.87% | BV/TV, Median [4]: 45.02% | Cart.Ar, Mean [4]: 2.49 mm2 | Cart.Ar, Median [4]: 2.63 mm2 | Cart.Bd, Mean [4]: 6.56 mm | Cart.Bd, Median [4]: 6.67 mm | Cart.Pm, Mean [4]: 6.48 mm | Cart.Pm, Median [4]: 6.62 mm | Cart.Wi, Mean [4]: 391.09 µm | Cart.Wi, Median [4]: 393.49 µm | Ophte.Ar, Mean [4]: 0.62 mm2 | Ophte.Ar, Median [4]: 0.37 mm2 | SCB.Wi, Mean [4]: 557.78 µm | SCB.Wi, Median [4]: 592.81 µm | Tb.N, Mean [4]: 2.47 1/mm | Tb.N, Median [4]: 2.39 1/mm | Tb.Sp, Mean [4]: 232.42 µm | Tb.Sp, Median [4]: 223.55 µm | Tb.Th, Mean [4]: 179.81 µm | Tb.Th, Median [4]: 179.09 µm | BV/TV, Mean [5]: 52.87% | BV/TV, Median [5]: 51.00% | Cart.Ar, Mean [5]: 2.30 mm2 | Cart.Ar, Median [5]: 2.03 mm2 | Ophte.Ar, Mean [5]: 2.75 mm2 | Ophte.Ar, Median [5]: 2.12 mm2 | Tb.N, Mean [5]: 2.87 1/mm | Tb.N, Median [5]: 2.98 1/mm | Tb.Sp, Mean [5]: 164.11 µm | Tb.Sp, Median [5]: 161.32 µm | Tb.Th, Mean [5]: 190.82 µm | Tb.Th, Median [5]: 169.90 µm | BV/TV, Mean [6]: 46.41% | BV/TV, Median [6]: 48.01% | Cart.Ar, Mean [6]: 2.99 mm2 | Cart.Ar, Median [6]: 3.31 mm2 | Ophte.Ar, Mean [6]: 5.87 mm2 | Ophte.Ar, Median [6]: 1.02 mm2 | Tb.N, Mean [6]: 2.87 1/mm | Tb.N, Median [6]: 2.92 1/mm | Tb.Sp, Mean [6]: 189.94 µm | Tb.Sp, Median [6]: 173.69 µm | Tb.Th, Mean [6]: 161.31 µm
